Experiments:
hippocampal cGMP levels = assay: Hippocampal cGMP assay after foot shock; format: in vivo, mice
Procedure: The hippocampal samples were extracted and snap frozen in liquid nitrogen. Levels of cGMP were quantitated by Enzyme Immunoassay procedure (Cayman Chemical Company, Item no. 581021) following the manufacturer's guidelines in duplicate. cGMP levels were normalized with the protein concentration calculated using BCA Protein Assay Reagent (Thermo Scientific).
cGMP levels in adult mice after treatment with compound H were measured. In a series of preliminary experiments, foot shock induces an immediate increase in cGMP levels in the hippocampus (FIG. 1). Concentration of cGMP was measured by enzyme immunoassay. Basal represents cGMP levels without foot shock. Values are the mean of duplicate determinations. Error bars show S.E.M. (n=3 per group); *p<0.01; ^‡p=0.033.

APP/PS1 mice = assay: 2-day radial arm water maze (reference memory); format: in vivo; conditions: 3 mg/kg i.p. for 3 weeks
Procedure: The radial arm water maze task, a hybrid of the classic Morris Water Maze and the radial arm land maze, was performed as described in J. Alamed, D. M. Wilcock, D. M. Diamond, M. N. Gordon, D. Morgan, Two-day radial-arm water maze learning and memory task; robust resolution of amyloid-related memory deficits in transgenic mice, Nat. Prot. 1 (2006) 1671-1679, herein incorporated by reference in its entirety. The mouse had to swim in 6 alleys (arms) radiating from a central area until it found a hidden (submerged) platform at the end of one of the arms, based on visual cues placed in the room. The first day of the protocol was a training day on which mice were trained to identify the platform location by alternating between a visible and a hidden platform in a goal arm. The final 3 trials on that day and all 15 trials on day 2 used a hidden escape platform to force mice to use spatial cues to identify the location of the goal arm. […] The number of incorrect arm entries (entries to arms with no platform) was counted. […] Failure to select an arm after 15 sec was counted as an error and the mouse was returned to the start arm. […] For data analysis, averages for each mouse were calculated using blocks of 3 trials. […]

Question: What does the source list for `COc1ccc(CNc2c3c(nc4ccc(C#N)cc24)CCN(C(C)=O)C3)cc1Cl` [Compound H, 2-acetyl-10-[(3-chloro-4-methoxybenzyl)amino]-1,2,3,4-tetrahydrobenzo[b][1,6]naphthyridine-8-carbonitrile]?
Answer: hippocampal cGMP level (hippocampal cGMP levels; 3 mg/kg i.p. 30 min before foot shock, 10 sec after shock): 0.48 ± 0.014 pmol/mg; hippocampal cGMP level (hippocampal cGMP levels; 3 mg/kg i.p. 30 min before foot shock, 60 sec after shock): 0.58 ± 0.033 pmol/mg; hippocampal cGMP level (hippocampal cGMP levels; 3 mg/kg i.p. 30 min before foot shock, 180 sec after shock): 0.58 ± 0.044 pmol/mg; hippocampal cGMP level (hippocampal cGMP levels; 10 mg/Kg i.p. 30 min before foot shock, 10 sec after shock): 0.56 ± 0.033 pmol/mg; hippocampal cGMP level (hippocampal cGMP levels; 10 mg/Kg i.p. 30 min before foot shock, 60 sec after shock): 0.70 ± 0.028 pmol/mg; hippocampal cGMP level (hippocampal cGMP levels; 10 mg/Kg i.p. 30 min before foot shock, 180 sec after shock): 0.63 ± 0.013 pmol/mg; effect on reference memory of WT mice (2-day RAWM) (APP/PS1 mice): no effect

Reference: patent US10626113B2, “Phosphodiesterase inhibitors and uses thereof” (THE TRUSTEES OF COLUMBIA UNIVERSITY IN THE CITY OF NEW YORK, priority 2012, dated 2020)
